Experimental data reported in PubChem BioAssay AID248 (DTP/NCI, 2004).
Where “and” joins values, the source holds several entries; their conditions need not be identical. Equal values may be shown once. Inconclusive results and toxic doses are left out. Cut-off read from the data, not from the text of the source: active = T/C of 150% or more; inactive = T/C below 125%.

Tested on: L1210 leukemia ip in BDF1 mice, survival T/C
Test: NCI In Vivo Anticancer Drug Screen. Data for tumor model L1210 Leukemia (intraperitoneal) in B6D2F1 (BDF1) mice
Conditions: endpoint: mean survival time, higher = longer survival
Summary of the method: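 In this screen, tumor-bearing mice given compound are compared to those given vehicle, and their survival values are reported as a treated-to-control quotient.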

[1] = dose: 50.0 mg/kg/injection, schedule: Q04DX003 (ip), vehicle: saline
[2] = dose: 100.0 mg/kg/injection, schedule: Q01DX009 (ip), vehicle: Klucel (hydroxypropylcellulose) (HPC)
[3] = dose: 200.0 mg/kg/injection, schedule: Q01DX009 (ip), vehicle: Klucel (hydroxypropylcellulose) (HPC)
[4] = dose: 400.0 mg/kg/injection, schedule: Q01DX009 (ip), vehicle: Klucel (hydroxypropylcellulose) (HPC)
[5] = dose: 200.0 mg/kg/injection, schedule: Q01DX001 (ip), vehicle: saline
[6] = dose: 100.0 mg/kg/injection, schedule: Q01DX001 (ip), vehicle: saline
[7] = dose: 100.0 mg/kg/injection, schedule: Q04DX003 (ip), vehicle: saline
[8] = dose: 200.0 mg/kg/injection, schedule: Q04DX003 (ip), vehicle: saline
[9] = dose: 400.0 mg/kg/injection, schedule: Q04DX003 (ip), vehicle: saline

Measured: T/C

C=CC#N
inactive: dose: 6.0 mg/kg/injection, schedule: Q01DX009 (ip), vehicle: saline 95 % of control | dose: 12.0 mg/kg/injection, schedule: Q01DX009 (ip), vehicle: saline 93 % of control | dose: 12.5 mg/kg/injection, schedule: Q01DX009 (ip), vehicle: saline 98 % of control | dose: 25.0 mg/kg/injection, schedule: Q01DX009 (ip), vehicle: saline 93 % of control | dose: 50.0 mg/kg/injection, schedule: Q01DX009 (ip), vehicle: carboxymethylcellulose (CMC) 93 % of control | dose: 50.0 mg/kg/injection, schedule: Q01DX009 (ip), vehicle: saline 94 % of control and 105 % of control | [1] 91 % of control | dose: 100.0 mg/kg/injection, schedule: Q01DX009 (ip), vehicle: carboxymethylcellulose (CMC) 92 % of control | dose: 200.0 mg/kg/injection, schedule: Q01DX001 (ip), vehicle: carboxymethylcellulose (CMC) 90 % of control | dose: 200.0 mg/kg/injection, schedule: Q01DX009 (ip), vehicle: carboxymethylcellulose (CMC) 93 % of control | dose: 400.0 mg/kg/injection, schedule: Q01DX001 (ip), vehicle: carboxymethylcellulose (CMC) 95 % of control | dose: 400.0 mg/kg/injection, schedule: Q01DX009 (ip), vehicle: carboxymethylcellulose (CMC) 97 % of control | dose: 600.0 mg/kg/injection, schedule: Q01DX001 (ip), vehicle: carboxymethylcellulose (CMC) 98 % of control | dose: 600.0 mg/kg/injection, schedule: Q01DX009 (ip), vehicle: carboxymethylcellulose (CMC) 89 % of control | dose: 800.0 mg/kg/injection, schedule: Q01DX001 (ip), vehicle: carboxymethylcellulose (CMC) 93 % of control | dose: 800.0 mg/kg/injection, schedule: Q01DX009 (ip), vehicle: carboxymethylcellulose (CMC) 95 % of control

CSc1ccc(NC(=O)Nc2ccc(Cl)cc2[N+](=O)[O-])cc1
inactive: [2] 97 % of control | [3] 91 % of control

O=C(Nc1cccc([N+](=O)[O-])c1)Nc1ccc(F)c([N+](=O)[O-])c1
inactive: [2] 102 % of control | [3] 101 % of control | [4] 98 % of control

O=C(O)C(Cc1cnc[nH]1)Nc1nc(NC(Cc2cnc[nH]2)C(=O)O)[nH]c(=O)n1 (centres undefined)
inactive: dose: 6.25 mg/kg/injection, schedule: Q01DX009 (ip), vehicle: Klucel (hydroxypropylcellulose) (HPC) 101 % of control | dose: 12.5 mg/kg/injection, schedule: Q01DX009 (ip), vehicle: Klucel (hydroxypropylcellulose) (HPC) 108 % of control | dose: 25.0 mg/kg/injection, schedule: Q01DX009 (ip), vehicle: Klucel (hydroxypropylcellulose) (HPC) 115 % of control

CCCN(CCC)CC(=O)N1CC(=O)Nc2ccccc21
inactive: dose: 25.0 mg/kg/injection, schedule: Q01DX009 (ip), vehicle: acetone 98 % of control | dose: 50.0 mg/kg/injection, schedule: Q01DX009 (ip), vehicle: acetone 96 % of control | dose: 100.0 mg/kg/injection, schedule: Q01DX009 (ip), vehicle: acetone 95 % of control | dose: 100.0 mg/kg/injection, schedule: Q04DX003 (ip), vehicle: acetone 103 % of control | dose: 200.0 mg/kg/injection, schedule: Q04DX003 (ip), vehicle: acetone 103 % of control

CCCCN(CCCC)C(=O)N(CCCC)CCCC
inactive: dose: 50.0 mg/kg/injection, schedule: Q01DX001 (ip), vehicle: saline with Tween-80 98 % of control | dose: 100.0 mg/kg/injection, schedule: Q01DX001 (ip), vehicle: saline with Tween-80 107 % of control | dose: 200.0 mg/kg/injection, schedule: Q01DX001 (ip), vehicle: saline with Tween-80 101 % of control

N#Cc1ccc(C(CCCCC(Cc2ccccc2)c2ccc(C#N)cc2)Cc2ccccc2)cc1 (centres undefined)
inactive: dose: 50.0 mg/kg/injection, schedule: Q01DX001 (ip), vehicle: saline 93 % of control | [5] 102 % of control | dose: 400.0 mg/kg/injection, schedule: Q01DX001 (ip), vehicle: saline 104 % of control

[N-]=[N+]=c1c(=O)c2ccccc2c1=O
inactive: dose: 100.0 mg/kg/injection, schedule: Q01DX009 (ip), vehicle: saline with Tween-80 103 % of control | dose: 200.0 mg/kg/injection, schedule: Q01DX009 (ip), vehicle: saline with Tween-80 97 % of control | dose: 400.0 mg/kg/injection, schedule: Q01DX009 (ip), vehicle: saline with Tween-80 96 % of control

CCC(=O)C(CC(C)[N+](C)(C)C)(c1ccccc1)c1ccccc1 (centres undefined)
inactive: dose: 100.0 mg/kg/injection, schedule: Q01DX001 (ip), vehicle: carboxymethylcellulose (CMC) 92 % of control

CN(C)c1ccc(C(=C2C=CC(=[N+](C)C)C=C2)c2ccc(N(C)C)cc2)cc1
inactive: [6] 97 % of control | [5] 105 % of control

CCOC(=O)NCCNC(=O)OCC
inactive: dose: 75.0 mg/kg/injection, schedule: Q01DX001 (ip), vehicle: Klucel (hydroxypropylcellulose) (HPC) 105 % of control | dose: 150.0 mg/kg/injection, schedule: Q01DX001 (ip), vehicle: Klucel (hydroxypropylcellulose) (HPC) 95 % of control | dose: 300.0 mg/kg/injection, schedule: Q01DX001 (ip), vehicle: Klucel (hydroxypropylcellulose) (HPC) 100 % of control

O=C(CNC(=O)NCc1ccccc1)N/N=C/c1cccc([N+](=O)[O-])c1
inactive: dose: 12.5 mg/kg/injection, schedule: Q01DX009 (ip), vehicle: saline with Tween-80 91 % of control | dose: 25.0 mg/kg/injection, schedule: Q01DX009 (ip), vehicle: saline with Tween-80 88 % of control | dose: 50.0 mg/kg/injection, schedule: Q01DX009 (ip), vehicle: saline with Tween-80 92 % of control and 88 % of control

CN1CCC(=C(C#N)c2ccccc2)CC1
inactive: dose: 25.0 mg/kg/injection, schedule: Q04DX003 (ip), vehicle: saline 97 % of control | [1] 97 % of control

O=C(O)c1ccc(NCc2cccc([N+](=O)[O-])c2)cc1
inactive: dose: 100.0 mg/kg/injection, schedule: Q01DX001 (ip), vehicle: Klucel (hydroxypropylcellulose) (HPC) 100 % of control | [2] 96 % of control | dose: 100.0 mg/kg/injection, schedule: Q04DX002 (ip), vehicle: Klucel (hydroxypropylcellulose) (HPC) 100 % of control and 105 % of control | dose: 100.0 mg/kg/injection, schedule: Q04DX003 (ip), vehicle: Klucel (hydroxypropylcellulose) (HPC) 99 % of control | dose: 200.0 mg/kg/injection, schedule: Q01DX001 (ip), vehicle: Klucel (hydroxypropylcellulose) (HPC) 104 % of control | [3] 106 % of control and 86 % of control | dose: 200.0 mg/kg/injection, schedule: Q04DX002 (ip), vehicle: Klucel (hydroxypropylcellulose) (HPC) 101 % of control and 102 % of control | dose: 200.0 mg/kg/injection, schedule: Q04DX003 (ip), vehicle: Klucel (hydroxypropylcellulose) (HPC) 108 % of control | dose: 400.0 mg/kg/injection, schedule: Q01DX001 (ip), vehicle: Klucel (hydroxypropylcellulose) (HPC) 100 % of control | [4] 96 % of control and 98 % of control | dose: 400.0 mg/kg/injection, schedule: Q04DX002 (ip), vehicle: Klucel (hydroxypropylcellulose) (HPC) 99 % of control and 103 % of control | dose: 400.0 mg/kg/injection, schedule: Q04DX003 (ip), vehicle: Klucel (hydroxypropylcellulose) (HPC) 98 % of control

CCN(CC)C(=O)N(CC)C(=O)CN(C)C
inactive: [7] 102 % of control | [8] 102 % of control | [9] 96 % of control

Nc1ncnc2nccnc12
inactive: dose: 25.0 mg/kg/injection, schedule: Q01DX Z (ip), vehicle: saline 103 % of control | dose: 75.0 mg/kg/injection, schedule: Q01DX Z (ip), vehicle: saline 89 % of control

N#CC1CNCCC1=N (centres undefined)
inactive: [7] 96 % of control | [8] 96 % of control | [9] 100 % of control

O=C(NC1CCCC1)c1ccc(C(=O)NC2CCCC2)cc1
inactive: [6] 91 % of control | [5] 91 % of control

CCCCSc1ccc2c(cc1=O)C(NC(C)=O)CCc1cc(OC)c(OC)c(OC)c1-2 (centres undefined)
inactive: dose: 25.0 mg/kg/injection, schedule: Q04DX002 (ip), vehicle: saline 98 % of control | dose: 50.0 mg/kg/injection, schedule: Q04DX002 (ip), vehicle: saline 98 % of control | dose: 100.0 mg/kg/injection, schedule: Q04DX002 (ip), vehicle: saline 120 % of control
